Reference: PMC12332157, “A preclinical study on the influence of linkers in [^68Ga]Ga-NOTA-X-RM26 radiotracers for PET imaging of GRPR expression” (EJNMMI Research, 2025)
Read-outs that look alike come from different tables or passages of the source. Starred links: 1 amine or outer side, 2 acyl side, 3 side chain; linkers in the order of their positions; H or OH if unused. Non-standard residues stand in square brackets, D forms with d. Residues, ends and D or L forms follow the SMILES beside them. *: point of attachment. NOTA = O=C(O)CN1CCN(CC(=O)O)CCN(CC(=O)*)CC1; Sta = CC(C)C[C@H](N)[C@@H](O)CC(=O)O; X2 = O=C(COc1cccc(CN[*:1])c1)[*:2]; X1 = O=C(Cc1ccccc1CCN[*:1])[*:2]

What was measured:
[1] = Octanol-water distribution coefficient (LogD); assay type: physicochemical; settings: n-octanol/PBS; n = 3; mean ± sd
Protocol: Octanol-water distribution coefficient (LogD) was determined by adding 10 pmol of radiopeptide to an Eppendorf tube containing 500 µL of phosphate-buffered saline (PBS) and 500 µL of n-octanol. Each tube was vortexed for 2 min and centrifuged at 6000 g for 5 min. Three 100 µL fractions were collected from each phase, and their radioactivity was measured.

[2] = design: method as in PMID 25684649; settings: same time point (2 h), 40 pmol; cited from earlier work
[3] = Complex stability of 68Ga-labeled peptides in PBS or EDTA solution in PBS (iTLC); assay type: physicochemical; settings: n = 3, mean ± sd; for remaining at 1 h, 1 µM: PBS buffer, pH 7.4, incubation at 37 °C for 1 h in PBS; for Stability in PBS with EDTA: incubation at 37 °C for 1 h in PBS with 1000-fold molar excess of EDTA, in % (unit assumed)
[4] = Biodistribution in BALB/c nu/nu mice bearing PC-3 xenografts; assay type: in vivo; settings: female, BALB/c nu/nu, mouse, iv, total radioactivity
Protocol: Female BALB/c nu/nu mice of 18–22 g weight were used in the study. All procedures with animals were conducted in accordance with the EU Directive 2010/63/EU for animal experiments and Swedish national legislation concerning the protection of laboratory animals. The experiments were approved by the ethics committee for animal research in Uppsala (Sweden) with permit number 5.8.18–00473/2021. Animals were housed in individually ventilated cages, under a 12-h light/dark cycle with free access to food and water.
For tumor inoculation, 8·10^6 PC-3 cells in 100 µL PBS were injected subcutaneously into the right hind leg of mice. Mouse weight and tumor size were measured every 2–3 days, and tumor volume was estimated by ellipsoid approximation. A predefined humane endpoint of the experiment was either a 15% weight loss or a tumor volume of 1000 mm^3, neither of which was reached.
Four weeks after tumor cell implantation, mice were randomized and divided into 6 groups (4 animals / group): 3 of them received treatment with ^68Ga-radiolabeled peptides, while the other 3 received the same peptides in addition to 5 nmol of non-labeled NOTA-PEG2-RM26 peptide for GRPR-blocking. Peptides were injected intravenously via the tail veins at a dose of 50 pmol (700 kBq radioactivity dose).
At 2 h post injection, mice were sacrificed by overdose of Ketamine/Xylazine anesthesia, and blood was collected by heart puncture. Then, liver, spleen, lungs, pancreas, kidneys, small intestine, stomach, tail, femur bones, tumor and muscle from the opposite legs were collected, weighed, and radioactivity was measured using a Wizard 2480 gamma counter. Data are presented as percentages of injected activity per gram of tissue (%IA/g).

[5] = blood, 50 pmol, 2 h p.i., i.v., read-out: Radionuclide concentration, Blood
[6] = blood, Blockade (co-injection of NOTA-PEG2-RM26), 2 h, read-out: Radionuclide concentration, Blood
[7] = bone, 50 pmol, 2 h p.i., i.v., read-out: Radionuclide concentration, Bone
[8] = bone, Blockade (co-injection of NOTA-PEG2-RM26), 2 h, read-out: Radionuclide concentration, Bone
[9] = carcass, 50 pmol, 2 h p.i., i.v., read-out: Radionuclide quantity, Carcass
[10] = carcass, Blockade (co-injection of NOTA-PEG2-RM26), 2 h, read-out: Radionuclide quantity, Carcass
[11] = gastrointestinal tract, 50 pmol, 2 h p.i., i.v., read-out: Radionuclide quantity, Gastrointestinal tract
[12] = gastrointestinal tract, Blockade (co-injection of NOTA-PEG2-RM26), 2 h, read-out: Radionuclide quantity, Gastrointestinal tract
[13] = kidneys, 50 pmol, 2 h p.i., i.v., read-out: Radionuclide concentration, Kidneys
[14] = kidneys, Blockade (co-injection of NOTA-PEG2-RM26), 2 h, read-out: Radionuclide concentration, Kidneys
[15] = liver, 50 pmol, 2 h p.i., i.v., read-out: Radionuclide concentration, Liver
[16] = liver, Blockade (co-injection of NOTA-PEG2-RM26), 2 h, read-out: Radionuclide concentration, Liver
[17] = lungs, 50 pmol, 2 h p.i., i.v., read-out: Radionuclide concentration, Lungs
[18] = lungs, Blockade (co-injection of NOTA-PEG2-RM26), 2 h, read-out: Radionuclide concentration, Lungs
[19] = muscle, 50 pmol, 2 h p.i., i.v., read-out: Radionuclide concentration, Muscle
[20] = muscle, Blockade (co-injection of NOTA-PEG2-RM26), 2 h, read-out: Radionuclide concentration, Muscle
[21] = pancreas, 50 pmol, 2 h p.i., i.v., read-out: Radionuclide concentration, Pancreas
[22] = pancreas, Blockade (co-injection of NOTA-PEG2-RM26), 2 h, read-out: Radionuclide concentration, Pancreas
[23] = small intestine, 50 pmol, 2 h p.i., i.v., read-out: Radionuclide concentration, Small Intestines
[24] = small intestine, Blockade (co-injection of NOTA-PEG2-RM26), 2 h, read-out: Radionuclide concentration, Small Intestines
[25] = spleen, 50 pmol, 2 h p.i., i.v., read-out: Radionuclide concentration, Spleen
[26] = spleen, Blockade (co-injection of NOTA-PEG2-RM26), 2 h, read-out: Radionuclide concentration, Spleen
[27] = stomach, 50 pmol, 2 h p.i., i.v., read-out: Radionuclide concentration, Stomach
[28] = stomach, Blockade (co-injection of NOTA-PEG2-RM26), 2 h, read-out: Radionuclide concentration, Stomach
[29] = total (sum of the measured activities), 50 pmol, 2 h p.i., i.v., sum of the measured activities, read-out: Radionuclide quantity, Total
[30] = total, Blockade (co-injection of NOTA-PEG2-RM26), 2 h, read-out: Radionuclide quantity, Total
[31] = tumor (PC-3 xenograft), 50 pmol, 2 h p.i., i.v., PC-3 xenograft, read-out: Radionuclide concentration, Tumor
[32] = tumor (PC-3 xenograft), Blockade (co-injection of NOTA-PEG2-RM26), 2 h, read-out: Radionuclide concentration, Tumor

Structure (SMILES) | logD [1] | remaining at 1 h, 1 µM [3] [%] | Stability in PBS with EDTA [3] | tissue uptake at 2 h [4, 5] [%ID/g] | tissue uptake at 2 h [4, 6] [%ID/g] | tissue uptake at 2 h [4, 7] [%ID/g] | tissue uptake at 2 h [4, 8] [%ID/g] | tissue uptake dose at 2 h [4, 9] [%ID] | tissue uptake dose at 2 h [4, 10] [%ID] | tissue uptake dose at 2 h [4, 11] [%ID] | tissue uptake dose at 2 h [4, 12] [%ID] | tissue uptake at 2 h [4, 13] [%ID/g] | tissue uptake at 2 h [4, 14] [%ID/g] | tissue uptake at 2 h [4, 15] [%ID/g] | tissue uptake at 2 h [4, 16] [%ID/g] | tissue uptake at 2 h [4, 17] [%ID/g] | tissue uptake at 2 h [4, 18] [%ID/g] | tissue uptake at 2 h [4, 19] [%ID/g] | tissue uptake at 2 h [4, 20] [%ID/g] | tissue uptake at 2 h [4, 21] [%ID/g] | other results
CC(C)C[C@H](NC(=O)C[C@H](O)[C@H](CC(C)C)NC(=O)[C@H](Cc1c[nH]cn1)NC(=O)CNC(=O)[C@@H](NC(=O)[C@H](C)NC(=O)[C@H](Cc1c[nH]c2ccccc12)NC(=O)[C@H](CCC(N)=O)NC(=O)[C@@H](Cc1ccccc1)NC(=O)COCCOCCNC(=O)CN1CCN(CC(=O)O)CCN(CC(=O)O)CC1)C(C)C)C(N)=O [[^68Ga]Ga-NOTA-PEG2-RM26, metal not drawn] | -1.43 ± 0.01 |  |  |  |  |  |  |  |  |  |  |  |  |  |  |  |  |  |  |  | accumulation in the kidneys [2]: 1.9 ± 0.3 %IA/g; accumulation in the liver [2]: 1 ± 0.1 %IA/g; accumulation in the lungs [2]: 0.17 ± 0.03 %IA/g; tissue uptake, pancreas [2]: 1.9 ± 0.1 %IA/g; tissue uptake, small intestine [2]: 0.6 ± 0.1 %IA/g; tissue uptake, stomach [2]: 1.4 ± 0.2 %IA/g; tissue uptake, tumor [2]: 5.4 ± 1 %IA/g
CC(=O)N[C@@H](CCCCNC(=O)CN1CCN(CC(=O)O)CCN(CC(=O)O)CC1)C(=O)NCc1cccc(OCC(=O)N[C@H](Cc2ccccc2)C(=O)N[C@@H](CCC(N)=O)C(=O)N[C@@H](Cc2c[nH]c3ccccc23)C(=O)N[C@@H](C)C(=O)N[C@H](C(=O)NCC(=O)N[C@@H](Cc2c[nH]cn2)C(=O)N[C@@H](CC(C)C)[C@@H](O)CC(=O)N[C@@H](CC(C)C)C(N)=O)C(C)C)c1 [[^68Ga]Ga-NOTA-mMA-RM26, metal not drawn] (Ac-K(NOTA)[X2][dF]QWAVGH[Sta]L-NH2) | -1.21 ± 0.03 | 92.8 ± 3.3 | 90.6 ± 4.1 | 0.39 ± 0.08 | 0.42 ± 0.21 | 0.28 ± 0.06 | 0.25 ± 0.03 | 2.8 ± 0.4 | 4.6 ± 0.7 | 4 ± 0.4 | 3.1 ± 1.7 | 8.4 ± 1.4 | 7.6 ± 0.7 | 3.7 ± 1.4 | 2.2 ± 0.5 | 7.1 ± 4.2 | 3.4 ± 0.5 | 0.12 ± 0.02 | 0.12 ± 0.05 | 10.5 ± 3.8 | tissue uptake at 2 h [4, 22]: 1.7 ± 0.9 %ID/g; tissue uptake at 2 h [4, 23]: 1.7 ± 0.7 %ID/g; tissue uptake at 2 h [4, 24]: 0.91 ± 0.48 %ID/g; tissue uptake at 2 h [4, 25]: 1.1 ± 0.4 %ID/g; tissue uptake at 2 h [4, 26]: 1.1 ± 0.8 %ID/g; tissue uptake at 2 h [4, 27]: 2.5 ± 0.6 %ID/g; tissue uptake at 2 h [4, 28]: 0.77 ± 0.51 %ID/g; tissue uptake dose at 2 h [4, 29]: 16.5 ± 3.1 %ID; tissue uptake dose at 2 h [4, 30]: 12.6 ± 2 %ID; tissue uptake at 2 h [4, 31]: 12.3 ± 2.8 %ID/g; tissue uptake at 2 h [4, 32]: 1.8 ± 0.2 %ID/g
CC(=O)N[C@@H](CCCCNC(=O)CN1CCN(CC(=O)O)CCN(CC(=O)O)CC1)C(=O)NCCc1ccccc1CC(=O)N[C@H](Cc1ccccc1)C(=O)N[C@@H](CCC(N)=O)C(=O)N[C@@H](Cc1c[nH]c2ccccc12)C(=O)N[C@@H](C)C(=O)N[C@H](C(=O)NCC(=O)N[C@@H](Cc1c[nH]cn1)C(=O)N[C@@H](CC(C)C)[C@@H](O)CC(=O)N[C@@H](CC(C)C)C(N)=O)C(C)C [[^68Ga]Ga-NOTA-oET-RM26, metal not drawn] (Ac-K(NOTA)[X1][dF]QWAVGH[Sta]L-NH2) | -0.97 ± 0.01 | 95 ± 2.9 | 92.6 ± 4.7 | 0.54 ± 0.01 | 0.31 ± 0.04 | 0.44 ± 0.04 | 0.33 ± 0.07 | 4.1 ± 1.1 | 3.1 ± 1.8 | 5.9 ± 0.5 | 3.5 ± 0.7 | 5.9 ± 0.6 | 3.3 ± 2.3 | 1.9 ± 0.2 | 1.3 ± 0.1 | 0.45 ± 0.27 | 0.37 ± 0.02 | 0.15 ± 0.01 | 0.15 ± 0.13 | 11.7 ± 2.4 | tissue uptake at 2 h [4, 22]: 1.2 ± 0.2 %ID/g; tissue uptake at 2 h [4, 23]: 2.4 ± 0.4 %ID/g; tissue uptake at 2 h [4, 24]: 0.33 ± 0.24 %ID/g; tissue uptake at 2 h [4, 25]: 0.46 ± 0.06 %ID/g; tissue uptake at 2 h [4, 26]: 0.28 ± 0.07 %ID/g; tissue uptake at 2 h [4, 27]: 2.6 ± 0.6 %ID/g; tissue uptake at 2 h [4, 28]: 0.55 ± 0.19 %ID/g; tissue uptake dose at 2 h [4, 29]: 16.3 ± 1.6 %ID; tissue uptake dose at 2 h [4, 30]: 8.5 ± 3 %ID; tissue uptake at 2 h [4, 31]: 11.2 ± 3.4 %ID/g; tissue uptake at 2 h [4, 32]: 1.3 ± 0.2 %ID/g
